Biological target: T1, CCR1 (Homo sapiens, UniProt P32246)
T1 construct: a monocytic derived cell line that endogenously expresses CCR1; host or cells: THP-1 cells
T1 sequence (P32246 1-355): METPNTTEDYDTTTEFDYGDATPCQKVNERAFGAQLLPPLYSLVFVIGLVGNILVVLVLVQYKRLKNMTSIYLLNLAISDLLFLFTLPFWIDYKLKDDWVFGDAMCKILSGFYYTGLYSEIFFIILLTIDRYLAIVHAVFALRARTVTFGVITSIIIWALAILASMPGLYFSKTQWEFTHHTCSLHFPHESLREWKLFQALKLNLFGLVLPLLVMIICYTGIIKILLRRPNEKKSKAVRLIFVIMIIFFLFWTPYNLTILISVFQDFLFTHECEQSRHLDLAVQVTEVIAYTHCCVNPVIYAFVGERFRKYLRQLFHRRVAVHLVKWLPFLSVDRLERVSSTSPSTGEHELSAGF
Experiment: CCR1 inhibition (THP-1 FLIPR assay / THP-1 whole cell radioligand binding assay; the patent does not say which gave the values)
Assay type: cell-based
Conditions: threshold list, less than 100 nm; compounds of Table 1; read-out: inhibitory activity

Compound	IC50 [nM]
O=C(c1ccc(Cl)cc1)N1CCN([C@@H]2CN(c3nc(Nc4ccc(Cl)cc4)cc(C(F)(F)F)n3)C[C@H]2O)CC1 (stereo in doubt) [Example 106, 4-[4-(4-chlorobenzoyl)piperazin-1-yl]-1-[4-[(4-chlorophenyl)amino]-6-(trifluoromethyl)pyrimidin-2-yl]pyrrolidin-3-ol]	< 100
CNC(=O)c1ccc2nc(C(F)(F)F)nc(N3C[C@@H](O)[C@H](N4CCN(C(=O)c5ccc(Cl)cc5)CC4)C3)c2c1 (stereo in doubt) [Example 198, 4-{3-[4-(4-chlorobenzoyl)piperazin-1-yl]-4-hydroxypyrrolidin-1-yl}-N-methyl-2-(trifluoromethyl)quinazoline-6-carboxamide]	< 100
O=C(c1ccc(Cl)cc1)N1CCN([C@@H]2CN(c3ncnc4cc(Cl)cnc34)C[C@H]2O)CC1 (racemic) [Example 162, 4-[4-(4-chlorobenzoyl)piperazin-1-yl]-1-(7-chloropyrido[3,2-d]pyrimidin-4-yl)pyrrolidin-3-ol]	< 100
O=C(c1ccc(Cl)cc1)N1CCN([C@@H]2CN(c3ncnc4cc(Cl)c(F)cc34)C[C@H]2O)CC1 (stereo in doubt) [Example 161, 4-[4-(4-chlorobenzoyl)piperazin-1-yl]-1-(7-chloro-6-fluoroquinazolin-4-yl)pyrrolidin-3-ol]	< 100
O=C(c1ccc(Cl)cc1)N1CCN([C@@H]2CN(c3nc(C(F)(F)F)nc4ccc(N5CCNC5=O)cc34)C[C@H]2O)CC1 (stereo in doubt) [Example 202, 1-[4-{3-[4-(4-chlorobenzoyl)piperazin-1-yl]-4-hydroxypyrrolidin-1-yl}-2-(trifluoromethyl)quinazolin-6-yl]imidazolidin-2-one]	< 100
CNC(=O)Nc1ccc2nc(C(F)(F)F)nc(N3C[C@H](O)[C@@H](N4CCN(C(=O)c5ccc(Cl)cc5)CC4)C3)c2c1 (stereo in doubt) [Example 196, N-[4-{3-[4-(4-chlorobenzoyl)piperazin-1-yl]-4-hydroxypyrrolidin-1-yl}-2-(trifluoromethyl)quinazolin-6-yl]-N′-methylurea]	< 100
CC(C)(C)c1cc(C(F)(F)F)nc(N2CC(O)C(N3CCN(C(=O)c4ccc(Cl)cc4)CC3)C2)n1 (stereo not drawn) [Example 129, 1-[4-tert-butyl-6-(trifluoromethyl)pyrimidin-2-yl]-4-[4-(4-chlorobenzoyl)piperazin-1-yl]pyrrolidin-3-ol]	< 100
Cc1cc(N2C[C@@H](O)[C@H](N3CCN(C(=O)c4ccc(Cl)cc4)CC3)C2)nc(C(F)(F)F)n1 (stereo in doubt) [Example 146, 4-[4-(4-chlorobenzoyl)piperazin-1-yl]-1-[6-methyl-2-(trifluoromethyl)pyrimidin-4-yl]pyrrolidin-3-ol]	< 100

Other lines, results leading:

IC50 [nM]	Compound
< 100	COc1cc2c(N3C[C@H](O)[C@@H](N4CCN(C(=O)c5ccc(Cl)cc5)CC4)C3)nc(C(F)(F)F)nc2cn1 (racemic) [Example 183, 4-[4-(4-chlorobenzoyl)piperazin-1-yl]-1-[6-methoxy-2-(trifluoromethyl)pyrido[3,4-d]pyrimidin-4-yl]pyrrolidin-3-ol]
< 100	O=C(c1ccc(Cl)cc1)N1CCN([C@@H]2CN(c3nc(C(F)(F)F)cc(C(F)(F)F)n3)C[C@H]2O)CC1 (stereo in doubt) [Example 109, 1-[4,6-bis(trifluoromethyl)pyrimidin-2-yl]-4-[4-(4-chlorobenzoyl)piperazin-1-yl]pyrrolidin-3-ol]
< 100	O[C@@H]1CN(c2ncnc3cc(Cl)ccc23)C[C@H]1N1CCN(Cc2ccc(Cl)cc2)CC1 [Example 141, (3R,4R)-4-[4-(4-chlorobenzyl)piperazin-1-yl]-1-(7-chloroquinazolin-4-yl)pyrrolidin-3-ol]
< 100	Cc1nc(C(F)(F)F)nc(N2C[C@H](O)[C@@H](N3CCN(C(=O)c4ccc(Cl)cc4)CC3)C2)c1C [Example 157, (3S,4S)-4-[4-(4-chlorobenzoyl)piperazin-1-yl]-1-[5,6-dimethyl-2-(trifluoromethyl)pyrimidin-4-yl]pyrrolidin-3-ol]
